This passage reports EC50, CC50 and EC90 results from ChEMBL document CHEMBL1132834, “Phenylpropenamide derivatives as inhibitors of hepatitis B virus replication” (Bioorg Med Chem Lett, 2000).

The structures appear in SMILES notation.

The test system of data set [1] is Human immunodeficiency virus 1. The data set is described as follows: Inhibition of HIV-1 replication by 50% (no effect at this concentration). Format: functional, organism-based.
Data set [2] can be described thus: Reduction of viable cell numbers by 50% was evaluated by HepAD38 cellular assay. Particulars: human, HepAD38 cells; read-out: TC50 (the source's name). Format: ADME, cell-based.
In data set [3] the test system is Vesicular stomatitis virus. Kind of data set: Inhibition of Vesicular stomatis virus replication by 50% (no effect at this concentration). Type of data set: functional, organism-based.
Data set [4] can be described thus: Inhibition of hepatitis B virus replication in the HepAD38 cell line. Type of data set: functional, cell-based. Particulars: Homo sapiens.
Data set [5] can be described thus: Inhibition of Woodchuck HBV replication by 50% (no effect at this concentration). Type of data set: functional, organism-based. The note with it: Marmota monax.
Data set [6] relates to Human alphaherpesvirus 1. Kind of data set: Inhibition of HSV-1 replication by 50% (no effect at this concentration). Format: functional, organism-based.
Data set [7] can be described thus: Inhibition of Duck HBV replication by 50% (no effect at this concentration). Type of data set: functional, organism-based. The note with it: Anas sp.
For data set [8], the system named is Newcastle disease virus. The data set is described as follows: Inhibition of Newcastles disease virus replication by 50% (no effect at this concentration). The note with it: avian paramyxovirus 1. Type of data set: functional, organism-based.
Data set [9] is described as follows: Concentration which inhibits hepatitis B virus replication in the HepAD38 cell line. Format: functional. The note with it: Homo sapiens.

`COc1ccc(/C(Br)=C(\NC(=O)c2ccccc2)C(=O)N2CCCCC2)cc1`: the EC50 – broadly, the concentration needed to bring the measured effect to its halfway point – in [1] is over 81 µM; in data set [3], over 81 µM; in data set [4], 13 µM; in data set [5] it was over 81 µM; in [6], over 81 µM; in [7] it was over 81 µM. Besides, the EC50 in data set [8] was over 81 µM. Besides, in data set [2], the CC50 was over 67 µM.
Regarding `O=C(N/C(C(=O)N1CCCCC1)=C(/Br)c1ccccc1)c1ccc([N+](=O)[O-])cc1`, the EC50 was over 81 µM in data set [1]; over 81 µM in data set [3]; 0.35 µM in data set [4]; over 81 µM in data set [5]; over 81 µM in [6]; over 81 µM in data set [7]. In [8], this compound registered an EC50 of over 81 µM. Also, the CC50 in data set [2] is over 65 µM. In addition, the 90% effect level in data set [9] (EC90) was put at 3 µM.
For `O=C(N/C(C(=O)N1CCCCC1)=C(/Br)c1ccccc1)c1ccccc1`, the EC50 in [1] is over 81 µM; in [3] it was over 81 µM; in [4], 1.3 µM; in [5], over 81 µM; in data set [6] it was over 81 µM; in data set [7], over 81 µM. The same compound came in with an EC50 in [8] of over 81 µM. Also, the CC50 in [2] is over 72 µM. Besides, it took 21 µM to reach the 90% level in [9] (EC90).
As to `O=C(N/C(C(=O)N1CCCCC1)=C(/Br)c1ccccc1F)c1ccccc1`, the concentration giving a half-maximal response (EC50) in [1] is over 81 µM; in data set [3], over 81 µM; in data set [4], 1.5 µM; in [5], over 81 µM; in [6], over 81 µM; in data set [7], over 81 µM. The same compound had an EC50 in [8] of over 81 µM. Moreover, in [2], the CC50 was 70 µM.
In the case of `COc1ccccc1/C(Br)=C(\NC(=O)c1ccc([N+](=O)[O-])cc1)C(=O)N1CCCCC1`, the EC50 in data set [1] is over 81 µM; in data set [3], over 81 µM; in data set [4], 0.13 µM; in [5], over 81 µM; in data set [6], over 81 µM; in data set [7], over 81 µM. In [8], this compound gave an EC50 of over 81 µM. Besides, the CC50 in data set [2] was over 61 µM. Also, in data set [9], the EC90 – broadly, the concentration needed for an effect of 90% – worked out at 0.92 µM.
For the compound `O=C(N/C(C(=O)N1CCCCC1)=C(/Br)c1ccccc1F)c1ccc([N+](=O)[O-])cc1`, the EC50 in data set [1] was over 81 µM; in data set [3], over 81 µM; in data set [4], 0.31 µM; in [5] it was over 81 µM; in [6], over 81 µM; in data set [7], over 81 µM. Further, the EC50 in data set [8] is over 81 µM. In addition, in data set [2], the CC50 is 42 µM. Moreover, the 90% effect level in data set [9] (EC90) was put at 1.8 µM.
As for `Cc1ccc(C(=O)N/C(C(=O)N2CCCCC2)=C(/Br)c2ccccc2)cc1`, the EC50 is over 81 µM in [1]; over 81 µM in [3]; 2.1 µM in [4]; over 81 µM in data set [5]; over 81 µM in [6]; over 81 µM in data set [7]. Besides, the EC50 in data set [8] is over 81 µM. For the same compound, in data set [2], the CC50 was over 70 µM. The compound also displayed an EC90 in [9] of 12 µM.
As for `O=C(N/C(C(=O)N1CCCCC1)=C(/Br)c1ccccc1)c1ccc(Br)cc1`, the EC50 was over 81 µM in data set [1]; over 81 µM in [3]; 0.53 µM in [4]; over 81 µM in data set [5]; over 81 µM in [6]; over 81 µM in [7]. In data set [8], this compound showed an EC50 of over 81 µM. Besides, in [2], the CC50 was over 61 µM. In data set [9], this compound registered an EC90 of 3.7 µM.
Take `COc1ccc(/C(Cl)=C(\NC(=O)c2ccccc2)C(=O)N2CCCCC2)cc1`: the EC50 in data set [1] was over 81 µM; in [3], over 81 µM; in data set [4] it was over 75 µM; in data set [5], over 81 µM; in data set [6], over 81 µM; in [7], over 81 µM. Besides, the EC50 in data set [8] was over 81 µM. Further, in data set [2], the CC50 is over 75 µM.
On to `O=C(N/C(C(=O)N1CCCCC1)=C(/Cl)c1ccc(Cl)cc1)c1ccccc1`, for which the EC50 in data set [1], in data set [3], in data set [5], in [6], in data set [7] and in [8] was over 81 µM each time. Besides, the CC50 in data set [2] amounted to 45 µM.
Take `O=C(N/C(C(=O)N1CCCCC1)=C(/Br)c1ccc(Cl)cc1)c1ccccc1`: the EC50 in data set [1] is over 81 µM; in data set [3] it was over 81 µM; in data set [4], 11 µM; in data set [5] it was over 81 µM; in data set [6], over 81 µM; in data set [7], over 81 µM. This compound gave an EC50 in data set [8] of over 81 µM. In data set [2], the CC50 stood at 55 µM.
In the case of `Cc1ccc(/C(Br)=C(\NC(=O)c2ccccc2)C(=O)N2CCCCC2)cc1`, the EC50 in [1] is over 81 µM; in [3] it was over 81 µM; in [4], 2.8 µM; in [5] it was over 81 µM; in [6] it was over 81 µM; in data set [7], over 81 µM. The compound further showed an EC50 in data set [8] of over 81 µM. Moreover, the CC50 in data set [2] was over 70 µM.
`Cc1ccccc1/C(Br)=C(\NC(=O)c1ccccc1)C(=O)N1CCCCC1`: the EC50 in data set [1] is over 81 µM; in data set [3] it was over 81 µM; in data set [4] it was 0.89 µM; in data set [5], over 81 µM; in data set [6] it was over 81 µM; in [7], over 81 µM. Besides, the EC50 in data set [8] was over 81 µM. Moreover, in data set [2], the CC50 is over 70 µM.
Consider `O=C(N/C(C(=O)N1CCCCC1)=C(/Cl)c1ccccc1)c1ccc(C(F)(F)F)cc1`, for which the EC50 is over 81 µM in [1]; over 81 µM in [3]; over 69 µM in data set [4]; over 81 µM in data set [5]; over 81 µM in data set [6]; over 81 µM in data set [7]. In [8], this compound displayed an EC50 of over 81 µM. For the same compound, the CC50 in data set [2] was over 69 µM.
For the compound `COc1ccc(C(=O)N/C(C(=O)N2CCCCC2)=C(/Cl)c2ccccc2)cc1`, the half-maximal effective concentration (EC50) in [1] was over 81 µM; in data set [3], over 81 µM; in [4], 5.2 µM; in data set [5] it was over 81 µM; in data set [6] it was over 81 µM; in data set [7] it was over 81 µM. In [8], this compound gave an EC50 of over 81 µM. Further, the CC50 in [2] was over 75 µM.
As for `O=C(N/C(C(=O)N1CCCCC1)=C(/Br)c1ccccc1)c1ccc(C(F)(F)F)cc1`, the EC50 in [1] is over 81 µM; in data set [3], over 81 µM; in data set [4] it was 5 µM; in [5], over 81 µM; in [6], over 81 µM; in data set [7], over 81 µM. In data set [8], this compound had an EC50 of over 81 µM. Also, the CC50 in data set [2] was over 62 µM. For the same compound, it took 34 µM to reach the 90% level in data set [9] (EC90).
Regarding `O=C(N/C(C(=O)N1CCCCC1)=C(/Br)c1ccccc1)c1ccc(F)cc1`, the EC50 was over 81 µM in [1]; over 81 µM in [3]; 0.86 µM in [4]; over 81 µM in data set [5]; over 81 µM in data set [6]; over 81 µM in data set [7]. This compound yielded an EC50 in data set [8] of over 81 µM. Further, in [2], the CC50 is over 69 µM. The compound further displayed an EC90 in data set [9] of 4.4 µM.
Consider `O=C(N/C(C(=O)N1CCCCC1)=C(/Br)c1ccc(Cl)cc1)c1ccc([N+](=O)[O-])cc1`, for which the EC50 was over 81 µM in data set [1]; over 81 µM in [3]; 1.6 µM in data set [4]; over 81 µM in data set [5]; over 81 µM in data set [6]; over 81 µM in data set [7]. For the same compound, the EC50 in data set [8] was over 81 µM. Further, in data set [2], the CC50 was over 60 µM.
As to `O=C(N/C(C(=O)N1CCCCC1)=C(/Cl)c1ccc(F)cc1)c1ccccc1`, the EC50 in data set [1] is over 81 µM; in [3] it was over 81 µM; in data set [4], 3.1 µM; in data set [5] it was over 81 µM; in data set [6], over 81 µM; in data set [7], over 81 µM. The compound also returned an EC50 in data set [8] of over 81 µM. Besides, the CC50 in [2] is over 75 µM. Further, the EC90 in [9] was 28 µM.
Turning to `O=C(N/C(C(=O)N1CCCCC1)=C(/Br)c1ccc(F)cc1)c1ccc([N+](=O)[O-])cc1`, the EC50 was over 81 µM in [1]; over 81 µM in [3]; 0.72 µM in [4]; over 81 µM in [5]; over 81 µM in data set [6]; over 81 µM in [7]. The EC50 in [8] is over 81 µM. Moreover, the CC50 in data set [2] was over 63 µM. For the same compound, it took 11 µM to reach the 90% level in data set [9] (EC90).
As to `COc1ccccc1/C(Br)=C(\NC(=O)c1ccccc1)C(=O)N1CCCCC1`, the EC50 in [1] was over 81 µM; in data set [3], over 81 µM; in data set [4] it was 2.1 µM; in data set [5], over 81 µM; in data set [6] it was over 81 µM; in [7], over 81 µM. Besides, the EC50 in data set [8] was over 81 µM. The CC50 in data set [2] is over 70 µM.
For the compound `O=C(N/C(C(=O)N1CCCCC1)=C(/Cl)c1ccccc1)c1ccc(F)cc1`, the EC50 is over 81 µM in data set [1]; over 81 µM in data set [3]; 1.3 µM in [4]; over 81 µM in [5]; over 81 µM in data set [6]; over 81 µM in [7]. This compound also had an EC50 in data set [8] of over 81 µM. Also, the CC50 in [2] is over 67 µM. In [9], the EC90 is 5.5 µM.
`O=C(N/C(C(=O)N1CCCCC1)=C(/Br)c1ccc(F)cc1)c1ccccc1`: the EC50 in data set [1] was over 81 µM; in [3], over 81 µM; in [4], 3.9 µM; in data set [5] it was over 81 µM; in data set [6], over 81 µM; in data set [7] it was over 81 µM. The same compound displayed an EC50 in [8] of over 81 µM. In data set [2], the CC50 was over 70 µM.
Turning to `O=C(N/C(C(=O)N1CCCCC1)=C(/Cl)c1ccccc1F)c1ccccc1`, the EC50 in [1], in data set [3], in [5], in [6], in data set [7] and in [8] was over 81 µM each time. Besides, in [2], the CC50 stood at 31 µM.
